# Source: the NIST ThermoML archive (doi:10.1021/je700132w)
# ± gives the expanded uncertainty stated by the source.
# Settings: Liquid; for Critical pressure: Direct measurement; for Critical density: Rectilinear diameter; for Critical temperature: Visual observation in an unstirred cell
SMILES,Critical pressure,Critical density,Critical temperature
"CC(C)CC(C)(C)C [2,2,4-trimethylpentane]",2570 ± 60 kPa,251 ± 7 kg/m3,544.1 ± 0.6 K
C=CCC [1-butene],4000 ± 60 kPa,233 ± 7 kg/m3,421.2 ± 0.6 K
O=C=O [carbon dioxide],7380 ± 60 kPa,473 ± 8 kg/m3,304.8 ± 0.6 K
CC(C)C [2-methylpropane],3620 ± 60 kPa,220 ± 6 kg/m3,409.9 ± 0.6 K
